According to US9556155B2, “Methods of treating fatty liver disease” (Genzyme Corporation, priority 2006, dated 2017):

Key:
Format in all cases: in vivo
ob/ob mice = experiment: Liver weight and body weight in ob/ob mice
Protocol: FIG. 6 is a graph comparing the liver weight to body weight ratios of ob/ob mice treated with water, ob/ob mice treated with Formula X, and lean mice treated with water after 6 weeks of treatment.
Male ob/ob mice were obtained from the Jackson Laboratories (Bar Harbor, Me.). These mice, being deficient in leptin, are hyperphagic and rapidly become obese. Severe hepatic steatosis is a characteristic of this model. Beginning at 7 weeks of age the mice were treated with Formula X by daily oral gavage (dosed 2× per day at 60 mg/kg/dose or 120 mg/kg/day). […] After 6 weeks of treatment, the animals were sacrificed and the livers dissected and weighed. In the placebo treated ob/ob mice, the liver weight to body weight ratio was higher than in lean animals (FIG. 6). […] N=6-8 mice per group.

[1] = tested on: hepatic genes involved in lipogenesis, gluconeogenesis, inflammation, and fibrosis; experiment: Quantitative RT-PCR of hepatic genes in ob/ob mice; settings: 120 mg/kg/day oral gavage, 6 weeks, vs placebo
Text: FIGS. 7A-G are a series of graphs comparing the expression of hepatic genes involved in lipogenesis, gluconeogenesis, inflammation, and fibrosis in ob/ob mice treated with water, ob/ob mice treated with Formula X, and lean mice treated with water after 6 weeks of treatment. In FIG. 7A, lower levels of sterol regulatory element binding protein 1c (SREBP-1c) RNA are observed in the drug-treated versus placebo-treated control animals. In FIG. 7B, lower levels of acid citrate lyase 1 (ACL1) are observed in the drug-treated versus placebo-treated control animals. In FIG. 7C, lower levels of acetyl coenzyme A carboxylase 1 (ACC1) are observed in the drug-treated versus placebo-treated control animals. In FIG. 7D, lower levels of fatty acid synthase (FAS) are observed in the drug-treated versus placebo-treated control animals. In FIG. 7E, lower levels of tumor necrosis factor 1 alpha (TNF-α) are observed in the drug-treated versus placebo-treated control animals. In FIG. 7F, lower levels of glucose 6-phosphatase (G6P) are observed in the drug-treated versus placebo-treated control animals. In FIG. 7G, lower levels of procollagen type 1 (collagen) are observed in the drug-treated versus placebo-treated control animals. Thus, treatment with Formula X reduced the expression of genes involved in lipogenesis (SREBP-1c, ACL1, ACC1, FAS), gluconeogenesis (G6P), inflammation (TNF-α), and fibrosis.
The ob/ob mice, beginning at 7 weeks of age, were treated with Formula X by daily oral gavage (dosed 2× per day at 60 mg/kg/dose, or 120 mg/kg/day) for 6 weeks. The mice were sacrificed and total RNA was purified from the livers for quantitative RT-PCR (FIG. 7) of sterol regulatory element binding protein 1c (SREBP-1c), acid citrate lyase 1 (ACL1), acetyl coenzyme A carboxylase 1 (ACC1), fatty acid synthase (FAS), tumor necrosis factor 1 alpha (TNF-α), glucose 6-phosphatase (G6P), and procollagen type 1 (collagen).

[2] = tested on: diet-induced obese (DIO) C57BL/6 mice; experiment: Hepatic steatosis in DIO mice, hematoxylin and eosin stained liver sections; settings: 125 mg/kg daily oral gavage, 10 weeks, vs water control
Protocol: FIGS. 2A-2C are a series of photographs comparing hematoxylin and eosin stained liver sections of (A) diet-induced obese (DIO) C57BL/6 mice treated with water (control), (B) DIO mice treated with D-threo-1-(3′,4′-ethylenedioxy)phenyl-2-octanoylamino-3-pyrrolidino-1-propanol (Formula XI), and (C) lean mice treated with water (control). Mice were treated by daily oral gavage for 10 weeks and then sacrificed. In FIG. 1A, large vacuoles are visible throughout the parenchyma of the livers from the water-treated control mice. […] In FIG. 1C, the livers of normal, lean mice are devoid of any lipid-filled vacuoles.
Diet-induced obese (DIO) mice were first generated by placing C57BL/6 mice on a high-fat (45% of kcal) diet (D12451, Research Diets, Inc., New Brunswick, N.J.) for 8 weeks. Obese mice that had elevated glucose and insulin levels were selected and then treated with Formula XI by daily oral gavage (125 mg/kg) or with water as a control. After 10 weeks of treatment, the livers were harvested, sectioned, and stained with hematoxylin and eosin. Large vacuoles were visible throughout the parenchyma of the livers from the water control mice (FIGS. 2A-2C). These vacuoles contain neutral lipid by Oil Red O staining of the liver sections.

DIO mice [3] = experiment: Liver triglyceride levels in DIO mice (hepatic lipid extracts); settings: 75 or 125 mg/kg daily oral gavage, 16 weeks, vs water control
Protocol: FIG. 3 is a graph comparing the mean levels of liver triglycerides in DIO mice treated with water, DIO mice treated with 75 mg/kg Formula XI, DIO mice treated with 125 mg/kg Formula XI, and lean mice treated with water. Mice were treated by daily oral gavage for 16 weeks and then euthanized. The livers were harvested and homogenized. Triglyceride levels were measured in hepatic lipid extracts.
DIO mice were generated as described in Example 1 and then treated with Formula XI by daily oral gavage at a dose of 75 or 125 mg/kg. Mice gavaged with water served as the control. After 16 weeks of treatment the livers were harvested and homogenized. The lipids were extracted with methanol:chloroform (4.3:3 v/v) and CaCI2. The extracted lipids were dried and dissolved in dimethylsulfoxide (DMSO). Triglycerides were measured using the Serum Triglyceride Determination kit (Sigma-Aldrich, St. Louis, Mo.) according to the protocol supplied by the manufacturer.

DIO mice [4] = experiment: Liver weight and body weight in DIO mice
Protocol: FIG. 4 is a graph comparing the liver weight to body weight ratios of DIO mice treated with water, DIO mice treated with Formula XI, and lean mice treated with water after 9 and 17 weeks of treatment.
DIO mice were generated as described in Example 1. Mice were maintained on the high-fat diet for an additional 23 weeks (total time on diet 31 weeks). The mice were then treated with Formula XI by daily oral gavage (125 mg/kg/day). […] After 9 and 17 weeks of treatment, groups of animals were sacrificed and the livers dissected and weighed. In the DIO mice, the liver weight to body weight ratio was higher than in lean animals.

DIO mice [5] = experiment: Markers of liver toxicity in blood of DIO mice; settings: 125 mg/kg/day oral gavage, 9 weeks, vs placebo
Text: FIGS. 5A-5D are a series of graphs comparing the levels of liver enzymes in DIO mice treated with water and DIO mice treated with Formula XI for 9 weeks. In FIG. 1A, lower levels of alanine aminotransferase (ALT) are observed in the drug-treated versus placebo-treated control animals. In FIG. 1B, lower levels of aspartate aminotransferase (AST) are observed in the drug-treated versus placebo-treated control animals. In FIG. 1C, lower levels of alkaline phosphatase are observed in the drug-treated versus placebo-treated control animals. In FIG. 1D, lower levels of γ-glutamyltransferase (GGT) are observed in the drug-treated versus placebo-treated control animals.
DIO mice were generated as described in Example 1. Mice were maintained on the high-fat diet for an additional 23 weeks (total time on diet 31 weeks). The mice were then treated with Formula XI by daily oral gavage (125 mg/kg/day). Blood was collected after 9 weeks of treatment and markers of liver toxicity were analyzed (IDEXX Laboratories, West Sacramento, Calif.). Lower levels of alanine aminotransferase (ALT), aspartate aminotransferase (AST), alkaline phosphatase, and gamma-glutamyltransferase (GGT) were found in the drug-treated versus placebo-treated control animals (FIGS. 5A-5D).

Structure (SMILES)	liver weights (ob/ob mice; 120 mg/kg/day oral gavage, 6 weeks)	liver weight to body weight ratio (ob/ob mice; 6 weeks of treatment, vs water)	acetyl coenzyme A carboxylase 1 (ACC1) expression in liver [1]	acid citrate lyase 1 (ACL1) expression in liver [1]	fatty acid synthase (FAS) expression in liver [1]	glucose 6-phosphatase (G6P) expression in liver [1]	procollagen type 1 (collagen) expression in liver [1]	sterol regulatory element binding protein 1c (SREBP-1c) RNA level in liver [1]	tumor necrosis factor 1 alpha (TNF-α) expression in liver [1]	size of liver vacuoles [2]	vacuoles visible in the livers (neutral lipid) [2]	total triglyceride levels in the liver (DIO mice [3])	liver weights (DIO mice [4]; 125 mg/kg/day oral gavage, 9 and 17 weeks)	liver/body weight ratio (DIO mice [4]; 125 mg/kg/day oral gavage, after 17 weeks, vs lean group)	liver weight to body weight ratio (DIO mice [4]; 9 and 17 weeks of treatment, vs water)	alanine aminotransferase (ALT) level (DIO mice [5])	alkaline phosphatase level (DIO mice [5])	aspartate aminotransferase (AST) level (DIO mice [5])	gamma-glutamyltransferase (GGT) level (DIO mice [5])
CCCCCCCCC(=O)NC(CN1CCCC1)C(O)c1ccc2c(c1)OCCO2 (stereo not shown) [Formula X, 1-(1,4-benzodioxan-6-yl)-2-nonanoylamino-3-pyrrolidino-1-propanol]	significantly reduced	reduction	lower levels	lower levels	lower levels	lower levels	lower levels	lower levels	lower levels	–	–	–	–	–	–	–	–	–	–
CCCCCCCC(=O)NC(CN1CCCC1)C(O)c1ccc2c(c1)OCCO2 (stereo not shown) [Formula XI, 1-(1,4-benzodioxan-6-yl)-2-octanoylamino-3-pyrrolidino-1-propanol]	–	–	–	–	–	–	–	–	–	appreciably smaller	significantly fewer vacuoles	dose-dependent reduction	significantly reduced	comparable to that of the lean group	reduction	Lower levels	Lower levels	Lower levels	Lower levels
